Key:
human GLP-1R [1] = biological target: human GLP-1R (Homo sapiens, UniProt P43220, G168S); assay: CHO GLP-1R Clone H6 cAMP HTRF agonist assay (Assay 1, high receptor density); format: cell-based; settings: for EC50: CHO GLP-1R clone H6, cAMP HTRF, geometric mean; for Emax: read-out: Assay 1 Emax (%)
Procedure, shortened: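 Averaging differs by parameter: a geometric mean for EC50 and an arithmetic mean for Emax, each over the stated replicate number.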

human GLP-1R [2] = biological target: human GLP-1R (Homo sapiens, UniProt P43220, L260F); assay: CHO GLP-1R Clone C6 cAMP HTRF agonist assay (Assay 2, low receptor density); format: cell-based; settings: for EC50: CHO GLP-1R clone C6, cAMP HTRF, geometric mean; for Emax: CHO GLP-1R clone C6, arithmetic mean, relative to saturating GLP-1 (1 μM)
human GLP-1R (Homo sapiens, UniProt P43220, L260F), sequence (P43220 24-463 L260F): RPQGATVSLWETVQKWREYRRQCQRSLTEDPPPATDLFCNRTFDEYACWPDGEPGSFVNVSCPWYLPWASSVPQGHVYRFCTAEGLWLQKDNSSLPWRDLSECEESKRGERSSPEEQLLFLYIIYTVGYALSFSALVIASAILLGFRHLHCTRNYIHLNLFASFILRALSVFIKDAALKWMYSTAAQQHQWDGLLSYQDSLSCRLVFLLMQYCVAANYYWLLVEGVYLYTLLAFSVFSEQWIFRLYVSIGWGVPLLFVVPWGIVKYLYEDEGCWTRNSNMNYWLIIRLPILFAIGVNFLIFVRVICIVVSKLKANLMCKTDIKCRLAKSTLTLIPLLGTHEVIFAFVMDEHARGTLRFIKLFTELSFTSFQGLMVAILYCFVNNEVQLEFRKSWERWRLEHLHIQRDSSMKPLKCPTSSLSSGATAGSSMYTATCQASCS
From the text: In Table 5 and Table 6, assay data are presented to two (2) significant figures as the geometric mean (EC50s) and arithmetic mean (Emax) based on the number of replicates listed (Number). A blank cell means there was no data for that Example or the Emax was not calculated.

[3] = CHO GLP-1R clone H6, arithmetic mean, relative to saturating GLP-1 (1 μM)

human GLP-1R (Homo sapiens, UniProt P43220, G168S), sequence (P43220 24-463 G168S): as the sequence (P43220 24-463 L260F) above, with G145S, F237L counted along it

EC50 (human GLP-1R [1]) | Emax (human GLP-1R [1]; [3]) | EC50 (human GLP-1R [2]) | Emax (human GLP-1R [2]) | Assay 1 Emax (%) (human GLP-1R [1]; [3]) | SMILES
0.55 nM | 77% | 9.2 nM | 94% | – | COCCn1c(CN2CC[C@H](c3cccc(OCc4ccc(Cl)cc4F)n3)[C@H](O)C2)nc2ccc(C(=O)O)cc21 (racemic) [Compound 191B, rac-2-{[(3R,4S)-4-{6-[(4-chloro-2-fluorobenzyl)oxy]pyridin-2-yl}-3-hydroxypiperidin-1-yl]methyl}-1-(2-methoxyethyl)-1H-benzimidazole-6-carboxylic acid]
150 nM | 86% | 4100 nM | 110% | – | C[C@H]1CN(c2cccc(OCc3ccc(Cl)cc3F)n2)CCN1Cc1nc2ccc(C(=O)O)nc2n1C[C@@H]1CCO1 [Compound 136B, 2-{[(2S)-4-{6-[(4-chloro-2-fluorobenzyl)oxy]pyridin-2-yl}-2-methylpiperazin-1-yl]methyl}-3-[(2S)-oxetan-2-ylmethyl]-3H-imidazo[4,5-b]pyridine-5-carboxylic acid]
2.4 nM | 71% | 38 nM | 83% | – | Cn1cnnc1Cn1c(CN2CCC(c3cccc(OCc4ccc(C#N)cc4F)n3)CC2)nc2ccc(C(=O)O)cc21 [Compound 188B, 2-[(4-{6-[(4-cyano-2-fluorobenzyl)oxy]pyridin-2-yl}piperidin-1-yl)methyl]-1-[(4-methyl-4H-1,2,4-triazol-3-yl)methyl]-1H-benzimidazole-6-carboxylic acid]
120 nM | 76% | 2200 nM | 83% | – | O=C(O)c1ccc2nc(CN3CCC(c4cccc(OCc5ccc(Cl)cc5F)n4)CC3)n(Cc3cnco3)c2c1 [Compound 145B, 2-[(4-{6-[(4-chloro-2-fluorobenzyl)oxy]pyridin-2-yl}piperidin-1-yl)methyl]-1-(1,3-oxazol-5-ylmethyl)-1H-benzimidazole-6-carboxylic acid]
6 nM | 80% | 78 nM | 88% | – | Cn1cncc1Cn1c(CN2CCN(c3cccc(OCc4ccc(C#N)cc4F)n3)CC2)nc2ccc(C(=O)O)cc21 [Compound 154B, 2-[(4-{6-[(4-cyano-2-fluorobenzyl)oxy]pyridin-2-yl}piperazin-1-yl)methyl]-1-[(1-methyl-1H-imidazol-5-yl)methyl]-1H-benzimidazole-6-carboxylic acid]
5.8 nM | 72% | 94 nM | 76% | – | Cn1nncc1Cn1c(CN2CCC(c3cccc(OCc4ccc(Cl)cc4F)n3)CC2)nc2ccc(C(=O)O)cc21 [Compound 144B, 2-[(4-{6-[(4-chloro-2-fluorobenzyl)oxy]pyridin-2-yl}piperidin-1-yl)methyl]-1-[(1-methyl-1H-1,2,3-triazol-5-yl)methyl]-1H-benzimidazole-6-carboxylic acid]
0.3 nM | – | 4.1 nM | 100% | – | COCCn1c(CN2CC[C@H](c3cccc(OCc4ccc(Cl)cc4F)n3)[C@@H](C)C2)nc2ccc(C(=O)O)cc21 (racemic) [Compound 193B, rac-2-{[(3S,4R)-4-{6-[(4-chloro-2-fluorobenzyl)oxy]pyridin-2-yl}-3-methylpiperidin-1-yl]methyl}-1-(2-methoxyethyl)-1H-benzimidazole-6-carboxylic acid]
21 nM | 79% | 540 nM | – | – | O=C(O)c1ccc2nc(CN3CCC(c4cccc(OCc5ccc(Cl)cc5F)n4)CC3)n(CCC(F)(F)F)c2c1 [Compound 346B, 2-[(4-{6-[(4-chloro-2-fluorobenzyl)oxy]pyridin-2-yl}piperidin-1-yl)methyl]-1-(3,3,3-trifluoropropyl)-1H-benzimidazole-6-carboxylic acid]
33 nM | 80% | 670 nM | 110% | – | CCc1nc(Cn2c(CN3CCC(c4cccc(OCc5ccc(Cl)cc5F)n4)CC3)nc3ccc(C(=O)O)cc32)no1 [Compound 263B, 2-[(4-{6-[(4-chloro-2-fluorobenzyl)oxy]pyridin-2-yl}piperidin-1-yl)methyl]-1-[(5-ethyl-1,2,4-oxadiazol-3-yl)methyl]-1H-benzimidazole-6-carboxylic acid]
0.34 nM | 78% | 7.4 nM | 94% | – | CCn1cncc1Cn1c(CN2CCC(c3cccc(OCc4ccc(C#N)cc4F)n3)CC2)nc2ccc(C(=O)O)cc21 [Compound 162B, 2-[(4-{6-[(4-cyano-2-fluorobenzyl)oxy]pyridin-2-yl}piperidin-1-yl)methyl]-1-[(1-ethyl-1H-imidazol-5-yl)methyl]-1H-benzimidazole-6-carboxylic acid]
770 nM | 78% | > 15000 nM | 100% | – | O=C(O)c1ccc2nc(CN3CCC(c4cccc(OCc5ccc(F)cc5F)n4)CC3)n(Cc3ncco3)c2c1 [Compound 149B, 2-[(4-{6-[(2,4-difluorobenzyl)oxy]pyridin-2-yl}piperidin-1-yl)methyl]-1-(1,3-oxazol-2-ylmethyl)-1H-benzimidazole-6-carboxylic acid]
110 nM | 74% | 2700 nM | – | – | O=C(O)c1ccc2nc(CN3CCC(c4cccc(OCc5ccc(Cl)cc5F)n4)CC3)n(Cc3c[nH]nn3)c2c1 [Compound 298B, 2-[(4-{6-[(4-chloro-2-fluorobenzyl)oxy]pyridin-2-yl}piperidin-1-yl)methyl]-1-(1H-1,2,3-triazol-4-ylmethyl)-1H-benzimidazole-6-carboxylic acid]
3.2 nM | – | 55 nM | 86% | – | CCn1nncc1Cn1c(CN2CCC(c3cccc(OCc4ccc(C#N)cc4F)n3)CC2)nc2ccc(C(=O)O)cc21 [Compound 164B, 2-[(4-{6-[(4-cyano-2-fluorobenzyl)oxy]pyridin-2-yl}piperidin-1-yl)methyl]-1-[(1-ethyl-1H-1,2,3-triazol-5-yl)methyl]-1H-benzimidazole-6-carboxylic acid]
18 nM | 88% | 400 nM | 100% | – | O=C(O)c1cc2c(cn1)nc(CN1CCC(c3cccc(OCc4ccc(Cl)cc4F)n3)CC1)n2Cc1ncco1 [Compound 204B, 2-[(4-{6-[(4-chloro-2-fluorobenzyl)oxy]pyridin-2-yl}piperidin-1-yl)methyl]-1-(1,3-oxazol-2-ylmethyl)-1H-imidazo[4,5-c]pyridine-6-carboxylic acid]
70 nM | 80% | 1800 nM | 85% | – | N#Cc1ccc(COc2cccc(C3CCN(Cc4nc5ccc(C(=O)O)cc5n4C[C@H]4CCCO4)CC3)n2)cc1 [Compound 132B, 2-[(4-{6-[(4-cyanobenzyl)oxy]pyridin-2-yl}piperidin-1-yl)methyl]-1-[(2R)-tetrahydrofuran-2-ylmethyl]-1H-benzimidazole-6-carboxylic acid]
4.2 nM | 69% | 77 nM | 75% | – | COCCn1c(CN2CC[C@@H](c3cccc(OCc4ccc(Cl)cc4F)n3)C[C@H]2C)nc2ccc(C(=O)O)cc21 (relative stereo) [Compound 358B, cis 2-{[4-{6-[(4-Chloro-2-fluorobenzyl)oxy]pyridin-2-yl}-2-methylpiperidin-1-yl]methyl}-1-(2-methoxyethyl)-1H-benzimidazole-6-carboxylic acid]
43 nM | 82% | 680 nM | 110% | – | C[C@H]1CN(c2cccc(OCc3ccc(C#N)cc3F)n2)CCN1Cc1nc2ccc(C(=O)O)cc2n1Cc1ncco1 [Compound 146B, 2-{[(2S)-4-{6-[(4-cyano-2-fluorobenzyl)oxy]pyridin-2-yl}-2-methylpiperazin-1-yl]methyl}-1-(1,3-oxazol-2-ylmethyl)-1H-benzimidazole-6-carboxylic acid]
150 nM | 68% | 5300 nM | 80% | – | Cc1ccc(Cn2c(CN3CCC(c4cccc(OCc5ccc(Cl)cc5F)n4)CC3)nc3ccc(C(=O)O)cc32)cn1 [Compound 336B, 2-[(4-{6-[(4-chloro-2-fluorobenzyl)oxy]pyridin-2-l}piperidin-1-yl)methyl]-1-[(6-methylpyridin-3-yl)methyl]-1H-benzimidazole-6-carboxylic acid]
100 nM | – | 1100 nM | 75% | – | COCCn1c(CN2CCN(c3cccc(OCc4ccc(Cl)cc4F)n3)C[C@H]2C)nc2ccc(C(=O)O)cc21 [Compound 356B, 2-{[(2R)-4-{6-[(4-chloro-2-fluorobenzyl)oxy]pyridin-2-yl}-2-methylpiperazin-1-yl]methyl}-1-(2-methoxyethyl)-1H-benzimidazole-6-carboxylic acid]
– | – | 1700 nM | 88% | 79% | N#Cc1ccc(COc2cccc(C3CCN(Cc4nc5ccc(C(=O)O)nc5n4Cc4ncco4)CC3)n2)c(F)c1 [Compound 168B, 2-[(4-{6-[(4-cyano-2-fluorobenzyl)oxy]pyridin-2-yl}piperidin-1-yl)methyl]-3-(1,3-oxazol-2-ylmethyl)-3H-imidazo[4,5-b]pyridine-5-carboxylic acid]
9.4 nM | 69% | 160 nM | 71% | – | C[C@H]1CN(c2cccc(OCc3ccc(C#N)cc3F)n2)CCN1Cc1nc2ccc(C(=O)O)cc2n1Cc1cocn1 [Compound 241B, 2-{[(2S)-4-{6-[(4-cyano-2-fluorobenzyl)oxy]pyridin-2-yl}-2-methylpiperazin-1-yl]methyl}-1-(1,3-oxazol-4-ylmethyl)-1H-benzimidazole-6-carboxylic acid]
